Data taken from paper PMC10112232, “Comparison of Toxicities among Different Bumped Kinase Inhibitor Analogs for Treatment of Cryptosporidiosis” (Antimicrobial Agents and Chemotherapy, 2023).
Where two headings read alike, the source gives them in different places.

What was measured:
[1] = Plasma levels and toxicity signs in treated piglets; type: in vivo, piglet; settings: for Cmax: pig, plasma, 5 mg/kg, 5 mg/kg BID
[2] = 14-day multidose rat toxicity study; type: in vivo; settings: rats
Procedure: (§1) A control group of male and female rats were administered vehicle only for controls. […] Observations of feeding and general health were made twice daily. Clinical assessments were made at 1 h after each treatment. Blood was collected for hematology and blood chemistry before the first dose and prior to euthanasia. Necropsy and histology of organs (Liver, heart, lung, kidney, spleen, thymus, brain, spinal cord, nerves of the front and back legs, including muscle, bone marrow femur, stomach, small and large intestine, including lymph nodes, and femur and sternum, including epiphyseal plates, distal hind limb, and thyroid gland) were performed after euthanasia.

[3] = Multidose calf toxicity study; type: in vivo; settings: calves
Procedure: Male and female calves were dosed orally with 7.5 or 15 mg/kg BID for 5 days. Adverse effects began on day 4, so the 7.5 mg/kg group received 9 doses total and the 15 mg/kg group received 7 doses total before the experiment was terminated.
as §1

[4] = Metabolite identification in hepatocytes; type: in vitro ADME, mice, rats, dogs, monkeys, and humans; settings: all tested species, product 1770-O-glucuronide
Procedure: BKI-1841 was also evaluated in these assays (Table 1). All results from these assays were favorable, including falling within the solubility range that correlated with efficacy for the AC scaffold ([17]).

[5] = molecular target: T1, C. parvum calcium dependent protein kinase 1 (CpCDPK1) (Cryptosporidium parvum, UniProt A3FQ16); set-up: method as in PMID 30830766; settings: read-out: CpCDPK1 IC50; cited from earlier work
T1 sequence (A3FQ16 1-538): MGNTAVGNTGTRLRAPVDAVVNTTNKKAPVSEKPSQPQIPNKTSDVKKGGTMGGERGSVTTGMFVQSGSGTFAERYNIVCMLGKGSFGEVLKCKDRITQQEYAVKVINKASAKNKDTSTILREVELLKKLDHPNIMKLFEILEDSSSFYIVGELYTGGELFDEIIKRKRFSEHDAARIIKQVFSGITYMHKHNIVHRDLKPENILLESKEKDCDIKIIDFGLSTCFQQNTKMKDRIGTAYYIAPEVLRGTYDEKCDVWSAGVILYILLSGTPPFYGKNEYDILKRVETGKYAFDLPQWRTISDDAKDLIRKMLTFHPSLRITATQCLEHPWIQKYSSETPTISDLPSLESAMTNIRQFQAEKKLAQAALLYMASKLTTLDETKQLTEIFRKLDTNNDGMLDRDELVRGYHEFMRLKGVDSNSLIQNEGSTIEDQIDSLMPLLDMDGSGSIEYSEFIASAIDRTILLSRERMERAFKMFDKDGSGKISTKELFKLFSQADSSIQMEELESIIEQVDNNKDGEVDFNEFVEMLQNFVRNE

[6] = tested on: Nluc expressing C. parvum; set-up: method as in PMID 30830766; settings: cited from earlier work
HepG2 cells = tested on: HepG2 cells; set-up: method as in PMID 30830766; settings: cited from earlier work
CRL-8155 cells = tested on: CRL-8155 cells; set-up: method as in PMID 30830766; settings: cited from earlier work
[7] = set-up: method as in PMID 30830766; settings: mice; cited from earlier work
[8] = molecular target: T1, C. parvum calcium dependent protein kinase 1 (CpCDPK1); assay: In vitro inhibition of CpCDPK1; type: biochemical
Excerpt: (§2) Methods for synthesis of BKIs ([17], [23]), efficacy against Nluc expressing C. parvum in infected adult IFN-γ KO mice ([6], [9]), in vivo mouse GI tract tissue exposure by LC/MS-MS analysis ([18], [28]), PK analysis of mouse plasma and brain tissue BKI concentrations by LC/MS-MS analysis ([29]), in vivo rat and dog cardiotoxicity screen ([30]), efficacy against IOWA-II strain C. parvum in infected neonatal calves ([13]), efficacy against C. hominis in infected piglets ([12]), in vitro inhibition of C. parvum CDPK1 (CpCDPK1) and human tyrosine kinase SRC (HsSRC) activity ([31]), in vitro inhibition of hERG ([32]), Nluc expressing C. parvum in vitro growth inhibition in infected HCT-8 cells ([6]), in vitro cytotoxicity in CRL-8155 and HepG2 cells ([29]), and mouse locomotor activity box ([33], [34]) have all been previously described. Analytes were measured by LC/MS-MS on an Acquity ultra performance liquid chromatography (UPLC) system in tandem with a Xevo TQ-S mass spectrometer (Waters, Milford, MA, USA).

[9] = tested on: Nluc expressing C. parvum; assay: Nluc expressing C. parvum in vitro growth inhibition in infected HCT-8 cells; type: cell-based; settings: Cryptosporidium parvum
Excerpt: as §2

[10] = In vitro cytotoxicity in HepG2 cells; type: cell-based; settings: human
Excerpt: as §2

[11] = In vitro cytotoxicity in CRL-8155 cells; type: cell-based; settings: human
Excerpt: as §2

Compound	visible signs of toxicity ([1]; 5 mg/kg BID for 5 or 8 days)	Cmax ([1]; at 2 h post dose 5, read-out: plasma observed Cmax)	Cmax ([1]; at 2 h post dose 8, read-out: plasma observed Cmax)	plasma concentration ([2]; 15 mg/kg group)	plasma concentration ([2]; 375 mg/kg group)	toxicity findings ([2]; oral 15 mg/kg QD, 14 days)	toxicity findings ([2]; oral 75 mg/kg QD, 14 days)	toxicity findings ([2]; oral 375 mg/kg QD)	bone findings ([3]; both 7.5 and 15 mg/kg BID groups)	locomotion findings ([3]; oral 15 mg/kg BID, 7 doses total)	main mechanism of metabolism [4]	IC50 [5]	EC50 [6]	CC50 (HepG2 cells)	CC50 (CRL-8155 cells)	blood chemistry and histology vs control animals [7]	IC50 [8]	EC50 [9]	CC50 [10]	CC50 [11]
CCOc1ccc2cc(-c3nn(C(C)(C)CCO)c(N)c3C(N)=O)ccc2c1 [BKI-1770]	no visible signs of toxicity	2.1 ± 1.4 µM	0.9 ± 0.4 µM	2.4 µM	11.8 µM	no signs of toxicity	some signs of bone toxicity, including thickened epiphyseal plates and increased spongiosa	euthanized after 7 doses due to extreme signs of toxicity	changes to the epiphyseal growth plates in the femur and sternum	locomotion problems on days 2 and 3	glucuronylation	0.002 µM	0.5 µM	> 80 µM	> 80 µM	no apparent abnormalities				
CCOc1ccc2cc(-c3nn(C4CCOCC4)c(N)c3C(N)=O)ccc2n1 [BKI-1841]																	0.003 µM	0.7 µM	> 80 µM	> 80 µM
